Results taken from ChEMBL document CHEMBL1132742, “The synthesis and SAR of rhodanines as novel class C beta-lactamase inhibitors” (Bioorg Med Chem Lett, 2000).
In brackets after ≈: the same amount, converted by molar mass. Activity calls are given as the source filed them. The rule behind the calls is not given here.

Legend:
Pseudomonas aeruginosa [1] = test: The compound was evaluated for antimicrobial activity against Pseudomonas aeruginosa OC 4270 by inhibiting enzyme AmpC(ind); assay type: functional
Enterobacter cloacae [2] = test: The compound was evaluated for antimicrobial activity against Enterobacter cloacae OC 4080 by inhibiting enzyme P99; assay type: functional
[3] = molecular target: Beta-lactamase TEM (Escherichia coli) (UniProt P62593); test: Inhibitory activity against class A Beta-lactamase TEM isolated from Escherichia coli
Escherichia coli [4] = test: The compound was evaluated for antimicrobial activity against Escherichia coli OC 4075 by inhibiting enzyme TEM-1; assay type: functional
Beta-lactamase = Beta-lactamase (Enterobacter cloacae, UniProt P05364); test: Inhibitory activity against class C Beta-lactamase isolated from Enterobacter cloacae
Enterobacter cloacae [5] = test: The compound was evaluated for antimicrobial activity against Enterobacter cloacae OC 4081 by inhibiting enzyme E2 (const); assay type: functional
Enterobacter cloacae [6] = test: The compound was evaluated for antimicrobial activity against Enterobacter cloacae OC 4092 by inhibiting enzyme E2 (ind); assay type: functional
Pseudomonas aeruginosa [7] = test: The compound was evaluated for antimicrobial activity against Pseudomonas aeruginosa OC 4290 by inhibiting enzyme AmpC(const); assay type: functional
Serratia marcescens [8] = test: The compound was evaluated for antimicrobial activity against Serratia marcescens OC 4101 by inhibiting enzyme AmpC(ind); assay type: functional
Serratia marcescens [9] = test: The compound was evaluated for antimicrobial activity against Serratia marcescens OC 4294 by inhibiting enzyme AmpC(const); assay type: functional
Pseudomonas aeruginosa [10] = test: The ratio of compound to that of piperacillin was evaluated for antimicrobial activity against Pseudomonas aeruginosa OC 4290 by inhibiting enzyme AmpC(const) at 1 ug/mL; assay type: functional
Pseudomonas aeruginosa [11] = test: The ratio of compound to that of piperacillin was evaluated for antimicrobial activity against Pseudomonas aeruginosa OC 4270 by inhibiting enzyme AmpC(ind) at 4 ug/mL; assay type: functional
Enterobacter cloacae [12] = test: The ratio of compound to that of piperacillin was evaluated for antimicrobial activity against Enterobacter cloacae OC 4080 by inhibiting enzyme P99 at 4 ug/mL; not applicable; assay type: functional, organism-based
Escherichia coli [13] = test: The ratio of compound to that of piperacillin was evaluated for antimicrobial activity against Escherichia coli OC 4075 by inhibiting enzyme TEM-1 at 4 ug/mL; not applicable; assay type: functional, organism-based
Serratia marcescens [14] = test: The ratio of compound to that of piperacillin was evaluated for antimicrobial activity against Serratia marcescens OC 4101 by inhibiting enzyme AmpC(ind) at 1 ug/mL; assay type: functional
Enterobacter cloacae [15] = test: The ratio of compound to that of piperacillin was evaluated for antimicrobial activity against Enterobacter cloacae OC 4080 by inhibiting enzyme P99 at 1 ug/mL; assay type: functional
Serratia marcescens [16] = test: The ratio of compound to that of piperacillin was evaluated for antimicrobial activity against Serratia marcescens OC 4101 by inhibiting enzyme AmpC(ind) at 4 ug/mL; assay type: functional
Serratia marcescens [17] = test: The ratio of compound to that of piperacillin was evaluated for antimicrobial activity against Serratia marcescens OC 4294 by inhibiting enzyme AmpC(const) at 4 ug/mL; assay type: functional
Serratia marcescens [18] = test: The ratio of compound to that of piperacillin was evaluated for antimicrobial activity against Serratia marcescens OC 4294 by inhibiting enzyme AmpC(const) at 1 ug/mL; assay type: functional
Pseudomonas aeruginosa [19] = test: The ratio of compound to that of piperacillin was evaluated for antimicrobial activity against Pseudomonas aeruginosa OC 4270 by inhibiting enzyme AmpC(ind) at 1 ug/mL; assay type: functional
Escherichia coli [20] = test: The ratio of compound to that of piperacillin was evaluated for antimicrobial activity against Escherichia coli OC 4075 by inhibiting enzyme TEM-1 at 1 ug/mL; assay type: functional
Pseudomonas aeruginosa [21] = test: The ratio of compound to that of piperacillin was evaluated for antimicrobial activity against Pseudomonas aeruginosa OC 4290 by inhibiting enzyme AmpC(const) at 4 ug/mL; assay type: functional
Enterobacter cloacae [22] = test: The ratio of compound to that of piperacillin was evaluated for antimicrobial activity against Enterobacter cloacae OC 4080 by inhibiting enzyme P99 at 4 ug/mL; assay type: functional
Escherichia coli [23] = test: The ratio of compound to that of piperacillin was evaluated for antimicrobial activity against Escherichia coli OC 4075 by inhibiting enzyme TEM-1 at 4 ug/mL; assay type: functional
[24] = Pseudomonas aeruginosa, read-out: MIC
[25] = Enterobacter cloacae, read-out: MIC
[26] = Escherichia coli, read-out: MIC

Sequence of Beta-lactamase (P05364 whole entry): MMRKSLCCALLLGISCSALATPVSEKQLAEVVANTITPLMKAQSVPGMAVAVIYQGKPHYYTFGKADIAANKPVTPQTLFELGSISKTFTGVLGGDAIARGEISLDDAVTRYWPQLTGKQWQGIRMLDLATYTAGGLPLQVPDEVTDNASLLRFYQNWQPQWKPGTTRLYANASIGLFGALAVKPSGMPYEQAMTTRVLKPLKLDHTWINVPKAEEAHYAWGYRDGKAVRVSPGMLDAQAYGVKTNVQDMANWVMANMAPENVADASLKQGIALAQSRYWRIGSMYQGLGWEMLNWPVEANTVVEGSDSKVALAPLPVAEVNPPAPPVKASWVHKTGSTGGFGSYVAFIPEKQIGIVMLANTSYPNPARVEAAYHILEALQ
Sequence of Beta-lactamase TEM (Escherichia coli) (P62593 whole entry, looked up): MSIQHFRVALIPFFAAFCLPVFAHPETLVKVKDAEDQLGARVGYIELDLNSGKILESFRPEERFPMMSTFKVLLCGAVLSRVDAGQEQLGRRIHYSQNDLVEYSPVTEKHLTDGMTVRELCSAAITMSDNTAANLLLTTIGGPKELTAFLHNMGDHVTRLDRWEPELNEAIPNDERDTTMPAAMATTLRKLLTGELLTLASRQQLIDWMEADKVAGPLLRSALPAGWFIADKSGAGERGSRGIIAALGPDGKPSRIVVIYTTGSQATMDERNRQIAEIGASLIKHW

O=C1NC(=O)C(=CC=Cc2ccc([N+](=O)[O-])o2)S1
MIC (Pseudomonas aeruginosa [1]; [24]): 32 µg/mL (≈ 120 µM) | MIC (Enterobacter cloacae [2]; [25]): 0.5 µg/mL (≈ 1.88 µM) | IC50 [3]: > 50 µM | MIC (Escherichia coli [4]; [26]): 1 µg/mL (≈ 3.76 µM) | IC50 (Beta-lactamase): > 50 µM | MIC (Enterobacter cloacae [5]): 4 µg/mL (≈ 15 µM) | MIC (Enterobacter cloacae [6]): 4 µg/mL (≈ 15 µM) | MIC (Pseudomonas aeruginosa [7]; [24]): 32 µg/mL (≈ 120 µM)

O=C1/C(=C/c2ccccc2)SC(=S)N1CNc1nncs1
IC50 [3]: 138 µM | IC50 (Beta-lactamase): 246 µM

O=C1NC(=S)SC1=CC=Cc1ccco1
IC50 [3]: 100 µM | IC50 (Beta-lactamase): 62 µM

O=C1NC(=S)S/C1=C\c1ccc([N+](=O)[O-])cc1
IC50 [3]: > 700 µM | IC50 (Beta-lactamase): 43 µM

CCN1CCN(C(=O)N[C@@H](C(=O)N[C@@H]2C(=O)N3[C@@H]2SC(C)(C)[C@@H]3C(=O)O)c2ccccc2)C(=O)C1=O [PIPERACILLIN]
MIC (Pseudomonas aeruginosa [1]; [24]): 8 µg/mL (≈ 15.5 µM) | MIC (Serratia marcescens [8]): 8 µg/mL (≈ 15.5 µM) | MIC (Enterobacter cloacae [2]; [25]): > 64 µg/mL | MIC (Escherichia coli [4]): > 64 µg/mL | MIC (Serratia marcescens [9]): > 64 µg/mL | MIC (Pseudomonas aeruginosa [7]; [24]): > 64 µg/mL

O=C1NC(=S)S/C1=C\c1ccccc1O
IC50 [3]: > 700 µM | IC50 (Beta-lactamase): 335 µM

O=C1NC(=S)SC1=CC=Cc1ccc([N+](=O)[O-])o1
Ratio (Pseudomonas aeruginosa [10]): 16 | Ratio (Pseudomonas aeruginosa [11]): 4 | Ratio (Enterobacter cloacae [12]): inactive | MIC (Pseudomonas aeruginosa [1]): 32 µg/mL (≈ 113 µM) | MIC (Pseudomonas aeruginosa [1]; [24]): 32 µg/mL (≈ 113 µM) | MIC (Serratia marcescens [8]): 8 µg/mL (≈ 28.3 µM) | MIC (Enterobacter cloacae [2]): 2 µg/mL (≈ 7.08 µM) | MIC (Enterobacter cloacae [2]; [25]): 2 µg/mL (≈ 7.08 µM) | IC50 [3]: 100 µM | Ratio (Escherichia coli [13]): inactive | Ratio (Serratia marcescens [14]): 2 | MIC (Escherichia coli [4]): 2 µg/mL (≈ 7.08 µM) | MIC (Escherichia coli [4]; [26]): 2 µg/mL (≈ 7.08 µM) | Ratio (Enterobacter cloacae [15]): 64 | Ratio (Serratia marcescens [16]): 2 | IC50 (Beta-lactamase): 0.45 µM | Ratio (Serratia marcescens [17]): 8 | Ratio (Serratia marcescens [18]): 32 | MIC (Serratia marcescens [9]): 8 µg/mL (≈ 28.3 µM) | Ratio (Pseudomonas aeruginosa [19]): 4 | MIC (Enterobacter cloacae [5]): 32 µg/mL (≈ 113 µM) | Ratio (Escherichia coli [20]): 64 | Ratio (Pseudomonas aeruginosa [21]): 8 | MIC (Enterobacter cloacae [6]): 32 µg/mL (≈ 113 µM) | MIC (Pseudomonas aeruginosa [7]): 32 µg/mL (≈ 113 µM) | MIC (Pseudomonas aeruginosa [7]; [24]): 32 µg/mL (≈ 113 µM)

O=C1NC(=S)SC1=CC=Cc1ccccc1
IC50 [3]: > 700 µM | IC50 (Beta-lactamase): 76 µM

O=C1/C(=C/c2ccccc2)SC(=S)N1CNc1nn[nH]n1
IC50 [3]: > 700 µM | IC50 (Beta-lactamase): 435 µM

CC(=O)Nc1ccccc1/C=C1\SC(=S)NC1=O
IC50 [3]: 190 µM | IC50 (Beta-lactamase): > 700 µM

CCN1C(=O)/C(=C/c2ccccc2)SC1=S
IC50 [3]: 432 µM | IC50 (Beta-lactamase): 240 µM

C[C@]1(Cn2ccnn2)[C@H](C(=O)O)N2C(=O)C[C@H]2S1(=O)=O [TAZOBACTAM]
MIC (Pseudomonas aeruginosa [11]): 8 µg/mL | MIC (Serratia marcescens [16]): 4 µg/mL | MIC (Serratia marcescens [17]): 32 µg/mL | MIC (Enterobacter cloacae [22]): 64 µg/mL | MIC (Pseudomonas aeruginosa [21]): 32 µg/mL | MIC (Escherichia coli [23]): 8 µg/mL

O=C1NC(=S)SC1=CC=Cc1ccc([N+](=O)[O-])cc1
IC50 [3]: 100 µM | IC50 (Beta-lactamase): 4.2 µM

O=C1NC(=S)S/C1=C\c1ccccc1C(=O)O
IC50 [3]: > 700 µM | IC50 (Beta-lactamase): > 700 µM

O=C1NC(=S)S/C1=C\c1ccccc1[N+](=O)[O-]
IC50 [3]: > 700 µM | IC50 (Beta-lactamase): 290 µM

O=C1NC(=S)S/C1=C\c1cn(-c2ccccc2)nn1
IC50 [3]: > 700 µM | IC50 (Beta-lactamase): 83 µM

CN(C)c1ccc(C=CC=C2SC(=S)NC2=O)cc1
IC50 [3]: > 100 µM | IC50 (Beta-lactamase): 8 µM

N#Cc1ccc(/C=C2\SC(=S)NC2=O)cc1
IC50 [3]: > 700 µM | IC50 (Beta-lactamase): 500 µM

O=C1NC(=S)S/C1=C1/C(=O)Nc2ccccc21
IC50 [3]: 8.7 µM | IC50 (Beta-lactamase): 2.6 µM

O=C(O)CN1C(=O)/C(=C/c2ccccc2)SC1=S
IC50 [3]: > 700 µM | IC50 (Beta-lactamase): > 700 µM

O=C1NC(=S)S/C1=C\c1cn(-c2ccccc2)cn1
IC50 [3]: > 700 µM | IC50 (Beta-lactamase): > 700 µM

O=C1NC(=S)S/C1=C\CCc1ccccc1
IC50 [3]: 32 µM | IC50 (Beta-lactamase): 9.7 µM
